Reference: article PMC12616683, “In Vivo Atlas of Neuroprotective Cyclic Dipeptides Derived from Food Gelatin Using Peptidomics and Feature-Based Molecular Networking” (Journal of Agricultural and Food Chemistry, 2025)
Where two headings read alike, the source gives them in different places.

Columns and labels:
[1] = FBMN analysis of short peptides in small intestine contents and serum after oral DHG; conditions: for Peptide signal (feature intensity) in the small intestine, 30 min / Peptide signal (feature intensity) in the small intestine, 60 min / Peptide signal (feature intensity) in the small intestine, 120 min / Peptide signal (feature intensity) in the small intestine, 240 min: small intestine contents, C57 mice, FBMN feature intensity, peptides smaller than 690 Da; for Peptide signal (feature intensity) in the small intestine, 30 min: 30 min after oral DHG; for Peptide signal (feature intensity) in the small intestine, 60 min: 60 min after oral DHG; for Peptide signal (feature intensity) in the small intestine, 120 min: 120 min after oral DHG; for Peptide signal (feature intensity) in the small intestine, 240 min: 240 min after oral DHG; for time detected in serum (FBMN): time points 0.5-4 h after oral DHG
[2] = Serum pharmacokinetics of CDPs after oral administration of DHG (targeted LC-MS, noncompartmental analysis); conditions: for AUC0–24h / C max / T max: serum, mice, oral DHG 1000 mg/kg
[3] = test system: Glu-induced HT-22 cells; assay: Neuroprotection in Glu-injured HT-22 cells (CCK-8 cell viability); conditions: for Cell viability(%) in Glu-induced HT-22 cells: Glu-only model (0 μM) 40.759±1.939; for cell viability in Glu-injured HT-22 cells: 50 μM (stated for cyclo(Hyp-Ala)), 4 h pretreatment, then 20 mM Glu 24 h, model group 40.759 ± 1.939%
[4] = test system: H2O2-induced HT-22 cells; assay: Neuroprotection in H2O2-injured HT-22 cells (CCK-8 cell viability); conditions: compound 50 μM; H2O2-only model (0 μM) 48.645±0.347
[5] = Concentrations of CDPs in stomach, small intestine and cecum contents after oral DHG (targeted spatiotemporal metabolomics); format: in vivo, C57 mice; conditions: cecum, 8 h
Protocol: The supernatant was dried using N2.
For gastrointestinal content analysis, freeze-dried powders (1 mg each) of stomach, small intestine, and cecum contents collected over the 0–24 h postadministration period were accurately weighed. The samples were extracted using the same pretreatment procedure as applied for DHG, namely, ultrasonication with 75% methanol for 30 min at room temperature, followed by centrifugation (13,500 rpm, 10 min). The supernatants were collected, dried under nitrogen, and reconstituted in 75% methanol for LC–MS analysis. Quantitation was performed against the 12-point calibration curves established above, ensuring consistency with the DHG quantitation workflow. Samples from different time points were analyzed individually to characterize the temporal distribution of CDPs within each gastrointestinal compartment.

[6] = mouse, in vivo, po, 1000 mg/kg
[7] = mouse, in vivo, po

| SMILES | AUC0–24h [2] | C max [2] | T max [2] | Cell viability(%) in Glu-induced HT-22 cells ([3]; compound 25 μM) | Cell viability(%) in Glu-induced HT-22 cells ([3]; compound 50 μM) | Cell viability(%) in H2O2-induced HT-22 cells [4] | also measured |
| --- | --- | --- | --- | --- | --- | --- | --- |
| CC(C)CC1NC(=O)C(Cc2ccccc2)NC1=O (centres unmarked) [cyclo(Phe-Leu)] | – | – | – | – | – | – | Peptide signal (feature intensity) in the small intestine, 30 min [1]: 1.01E+05; Peptide signal (feature intensity) in the small intestine, 60 min [1]: 0.00E+00; Peptide signal (feature intensity) in the small intestine, 120 min [1]: 8.22E+05; Peptide signal (feature intensity) in the small intestine, 240 min [1]: 4.33E+05 |
| O=C1N[C@@H](Cc2cnc[nH]2)C(=O)N2CCC[C@@H]12 [cyclo(Pro-His), cyclo(His-Pro)] | 13.9981 ng·h/mL | 1.9830 ng/mL | 30 min | 52.701±4.050% | 55.361±5.121% | 55.307±7689% | – |
| O=C1[C@@H]2C[C@@H](O)CN2C(=O)[C@@H]2CCCN12 [cyclo(Pro-Hyp)] | 2126.6252 ng·h/mL | 408.1371 ng/mL | 60 min | 53.105±7.712% | – | 67.606±2.468% | cecum concentration at 8 h compared with peak levels in stomach and small intestine [5]: surpassed the peak levels observed in the stomach and small intestine; time remained detectable in serum ([2]; serum/blood after oral DHG, sampled to 24 h): 24 h; cell viability in Glu-injured HT-22 cells [3]: 60.071 ± 3.101 % cell viability |
| CC[C@H](C)[C@@H]1NC(=O)[C@@H]2CCCN2C1=O [cyclo(Pro-Ile)] | 71.9933 ng·h/mL | 24.5331 ng/mL | 30 min | 58.030±5.577% | – | 61.087±0.749% | cell viability in Glu-injured HT-22 cells [3]: 63.104 ± 2.519 % cell viability |
| CC(C)CC1NC(=O)C2CCCN2C1=O (centres unmarked) [cyclo(Pro-Leu)] | 176.6962 ng·h/mL | 81.2502 ng/mL | 30 min | 52.208±0.555% | 55.781±2.676% | 57.413±6.700% | time detected in serum (FBMN) [1]: 0.5 to 4 h |
| O=C1N[C@@H](Cc2ccccc2)C(=O)N2CCC[C@@H]12 [cyclo(Pro-Phe)] | – | – | – | – | – | – | AUC0–24h [6]: 19.8164 ng·h/mL; C max [6]: 11.0670 ng/mL; T max [6]: 30 min; Peptide signal (feature intensity) in the small intestine, 30 min [7]: 2.06E+05; Peptide signal (feature intensity) in the small intestine, 60 min [7]: 0.00E+00; Peptide signal (feature intensity) in the small intestine, 120 min [7]: 2.49E+05; Peptide signal (feature intensity) in the small intestine, 240 min [7]: 2.18E+05 |
| O=C1[C@@H]2CCCN2C(=O)[C@@H]2CCCN12 [cyclo(Pro-Pro)] | 487.9963 ng·h/mL | 197.3334 ng/mL | 30 min | 57.390±2.465% | 58.451±5.789% | 60.084±2.807% | time of decline / return to baseline in serum ([2]; serum after oral DHG): up to 8 h |
| CC(C)[C@@H]1NC(=O)[C@@H]2CCCN2C1=O [cyclo(Pro-Val)] | 201.4294 ng·h/mL | 78.4401 ng/mL | 30 min | 57.390±2.314% | 58.518±3.306% | 60.019±9.124% | time detected in serum (FBMN) [1]: 0.5 to 4 h |
| O=C1CNC(=O)C(Cc2ccccc2)N1 [cyclo(glycinyl-L-phenylalanine)] | – | – | – | – | – | – | Peptide signal (feature intensity) in the small intestine, 30 min [1]: 1.21E+06; Peptide signal (feature intensity) in the small intestine, 60 min [1]: 0.00E+00; Peptide signal (feature intensity) in the small intestine, 120 min [1]: 9.00E+05; Peptide signal (feature intensity) in the small intestine, 240 min [1]: 4.18E+05 |
